The values below come from ChEMBL document CHEMBL1201862, “PubChem BioAssay data set” (2004).

Holding throughout (assay): inhibition of tumour cell growth, NCI panel, 48 h
Test [1] relates to CAKI-1.
Test [2] has as its system HCT-15.
For test [3], the system named is HT-29.
Test [4] has as its system MCF7.
Test [5] deals with MDA-MB-435.
Test [6] relates to MDA-N.
Test [7] has as its system NCI-H226.
Test [8] deals with NCI-H460.
Test [9] deals with OVCAR-3.
Test [10] relates to OVCAR-8.
Test [11] deals with RPMI-8226.
Test [12] has as its system SF-268.
Test [13] concerns SK-MEL-28.
Test [14] relates to SK-OV-3.
The subject of test [15] is SNB-75.
Test [16] has as its system UACC-257.
The test system of test [17] is UACC-62.
Test [18] relates to DU-145.
Test [19] deals with HL-60.
Test [20] has as its system SK-MEL-5.

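Protocol summary: plate cells (96-well), add compound at 5 concentrations, incubate 48 h, interpolate endpoints linearly. GI50: concentration for 50% inhibition of growth.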 Activity calls are given as the source filed them. Cut-off read from the data, not from the text of the source: active = GI50 up to about 1.1 µM and inactive = higher.

As to `c1ccc2c(c1)ccc1nc(-c3ccc4c(c3)OCO4)c3c(c12)CCCC3`, the GI50 in test [1] was 45.4 µM (inactive); in test [2], 6.07 µM; in [3], 9.48 µM (inactive); in test [4] it was 24.5 µM (inactive); in [5], 27.5 µM (inactive); in test [6] it was 37.9 µM (inactive). In addition, the GI50 in [7] is 73.1 µM (inactive); in test [8], 11.6 µM (inactive); in [9], 15.4 µM (inactive); in test [10] it was 20.2 µM (inactive); in test [11], 15.5 µM (inactive); in [12], 12.2 µM (inactive). Besides, the GI50 in test [13] is 30.2 µM (inactive); in test [14], 43.5 µM (inactive); in test [15] it was 31.1 µM (inactive); in test [16] it was 30.1 µM (inactive); in [17], 18.8 µM (inactive).
On to `C[C@H]1CCCCC[C@@H]2CC(=O)CC2C(=O)CCC(=O)O1` (some centres not stated), for which the GI50 in test [18] was > 100 µM (inactive); in [2], over 100 µM; in test [19], > 100 µM (inactive); in [3] it was > 100 µM (inactive); in test [4], > 100 µM (inactive); in test [5], > 100 µM (inactive). The GI50 in test [6] was > 100 µM (inactive); in test [7] it was 16.7 µM (inactive); in test [8], > 100 µM (inactive); in test [9] it was > 100 µM (inactive); in test [10] it was > 100 µM (inactive); in test [11] it was > 100 µM (inactive). Also, the GI50 in [12] is > 100 µM (inactive); in test [13], > 100 µM (inactive); in [20], > 100 µM (inactive); in [15] it was 9.02 µM (inactive); in test [16], > 100 µM (inactive); in test [17], 6.68 µM (inactive).
For the compound `COc1ccccc1Cn1[nH]c(=O)c2cc([N+](=O)[O-])ccc21`, the GI50 in test [1] was > 100 µM (inactive); in test [18] it was > 100 µM (inactive); in [2], over 100 µM; in [19], 86.5 µM (inactive); in test [3], > 100 µM (inactive); in test [5], 43.9 µM (inactive). Moreover, the GI50 in test [6] was 47.8 µM (inactive); in test [7], > 100 µM (inactive); in test [8] it was > 100 µM (inactive); in test [9], 27.9 µM (inactive); in test [10], > 100 µM (inactive); in test [11], > 100 µM (inactive). Moreover, the GI50 in test [12] was 48.5 µM (inactive); in test [13] it was > 100 µM (inactive); in [20], > 100 µM (inactive); in test [15], 25.8 µM (inactive); in [16], > 100 µM (inactive); in test [17] it was 76 µM (inactive).
As for `C[C@@H](CCO)OC1OC(COC(=O)C(C)(C)C)C(OC(=O)C(C)(C)C)C(OC(=O)C(C)(C)C)C1OC(=O)C(C)(C)C` (some centres not stated), the GI50 in test [1] is 5.97 µM (inactive); in test [18] it was > 100 µM (inactive); in [2], 32.4 µM; in [19], 5.89 µM (inactive); in test [3], 13.6 µM (inactive); in [4], 15.1 µM (inactive). The GI50 is 34.5 µM (inactive) in test [5]; 20.9 µM (inactive) in test [7]; 16.1 µM (inactive) in [8]; 86.7 µM (inactive) in [9]; 96.8 µM (inactive) in test [10]; 15.5 µM (inactive) in [11]. Besides, the GI50 is 50.6 µM (inactive) in [12]; 21.9 µM (inactive) in test [13]; 4.97 µM (inactive) in test [20]; 58.7 µM (inactive) in test [14]; 32.1 µM (inactive) in test [15]; 25.5 µM (inactive) in test [16]. The GI50 in test [17] is 48 µM (inactive).
Consider `c1cc(CSP234N5CCN2CCN3CCN4CC5)cc(CSP234N5CCN2CCN3CCN4CC5)c1`, for which the GI50 in [1] is > 100 µM (inactive); in [18] it was > 100 µM (inactive); in test [2] it was 22.3 µM; in test [19], 3.56 µM (inactive); in test [3] it was 19.1 µM (inactive); in test [4] it was 25.8 µM (inactive). In addition, the GI50 in test [5] was 22.6 µM (inactive); in test [6], 28.1 µM (inactive); in test [8], 26.6 µM (inactive); in [9], 32.3 µM (inactive); in test [10] it was 18.6 µM (inactive); in test [11], 14.5 µM (inactive). The GI50 in test [12] is 29.4 µM (inactive); in test [13], 18.8 µM (inactive); in test [20] it was 16.3 µM (inactive); in test [15], 20.1 µM (inactive); in test [16], 17 µM (inactive); in [17] it was 16.8 µM (inactive).
In the case of `CC1(C)CC(=O)C2=C(C1)OC1(CC2c2ccc(Cl)cc2)CC(c2ccc(Cl)cc2)C2=C(CC(C)(C)CC2=O)O1` (configuration not stated), the GI50 is 26.9 µM (inactive) in [1]; 19.6 µM (inactive) in [18]; 9.62 µM in test [2]; 3.58 µM (inactive) in test [19]; 28.2 µM (inactive) in test [3]; 12 µM (inactive) in test [4]. Moreover, the GI50 in [5] is 8.53 µM (inactive); in [7], 22.4 µM (inactive); in test [8], 14.3 µM (inactive); in [9], 3.44 µM (inactive); in test [10], 24.7 µM (inactive); in [11] it was 9.46 µM (inactive). In addition, the GI50 is 17.9 µM (inactive) in test [12]; 15.2 µM (inactive) in test [13]; 14.8 µM (inactive) in test [20]; 12.1 µM (inactive) in [14]; 17.5 µM (inactive) in test [15]; 17 µM (inactive) in test [16]. In addition, the GI50 in [17] is 23.6 µM (inactive).
Regarding `CC[C@]12C=CCN3CC[C@@]4(c5cc(Br)c(OC)cc5N(C)[C@H]4[C@@](O)(C(=O)N[C@@H](Cc4ccc(O)cc4)C(=O)OC)[C@@H]1O)[C@@H]32`, the GI50 was 18.7 µM (inactive) in test [1]; 55.1 µM (inactive) in test [18]; 23.3 µM in [2]; 26.7 µM (inactive) in [19]; 14.6 µM (inactive) in [3]; 23.1 µM (inactive) in [4]. Further, the GI50 in test [5] was 16.4 µM (inactive); in [6] it was 20 µM (inactive); in test [8], 18.2 µM (inactive); in test [9], 25.6 µM (inactive); in test [10] it was 24.9 µM (inactive); in [11] it was 15.6 µM (inactive). For the same compound, the GI50 was 13.6 µM (inactive) in test [12]; > 100 µM (inactive) in test [13]; 17.6 µM (inactive) in [20]; 74.5 µM (inactive) in test [14]; 16.3 µM (inactive) in test [16]; 17.6 µM (inactive) in [17].
With `CCCCCCc1cc2cc(C(=O)Nc3cccc(C(F)(F)F)c3)c(=N)oc2cc1O`, the GI50 is 2.32 µM (inactive) in test [1]; 1.37 µM (inactive) in test [18]; 1.43 µM in test [2]; 1.44 µM (inactive) in test [19]; 5.96 µM (inactive) in [3]; 1.62 µM (inactive) in test [4]. The GI50 in test [5] was 2 µM (inactive); in test [7] it was 1.06 µM (active); in test [8], 0.436 µM (active); in test [9], 2.07 µM (inactive); in test [10], 1.26 µM (inactive); in test [11], 0.524 µM (active). Moreover, the GI50 in test [12] is 0.944 µM (active); in [13], 2.57 µM (inactive); in test [20], 1.13 µM (inactive); in [14] it was 2.16 µM (inactive); in test [15], 0.646 µM (active); in test [16] it was 2.44 µM (inactive). In addition, the GI50 in test [17] is 1.53 µM (inactive).
For the compound `O=C(O)c1c2c(c(O)c3c1CN(C1CCCCC1)CO3)OCN(C1CCCCC1)C2`, the GI50 is > 100 µM (inactive) in [1]; > 100 µM (inactive) in test [18]; over 100 µM in test [2]; > 100 µM (inactive) in test [3]; 20.1 µM (inactive) in [4]; 58.1 µM (inactive) in [5]. Moreover, the GI50 in test [6] is > 100 µM (inactive); in [8] it was 19 µM (inactive); in test [9], 69 µM (inactive); in [10], 45.1 µM (inactive); in [11], 40.5 µM (inactive); in test [12], 46.3 µM (inactive). Also, the GI50 in test [13], in test [20], in [14], in test [15], in test [16] and in test [17] was > 100 µM (inactive) each time.
Turning to `COc1ccc(C2Oc3c(cccc3OC)C=C2[N+](=O)[O-])cc1` (configuration not stated), the GI50 in test [1] is 1.58 µM (inactive); in test [18] it was 4.38 µM (inactive); in [2], 1.36 µM; in [19], 2.17 µM (inactive); in test [3], 1.63 µM (inactive); in test [4] it was 2.18 µM (inactive). Further, the GI50 in [5] was 2.12 µM (inactive); in test [6], 2 µM (inactive); in test [8] it was 1.81 µM (inactive); in test [9], 2 µM (inactive); in test [10], 2.49 µM (inactive); in [11] it was 2.01 µM (inactive). Also, the GI50 in test [12] is 2.69 µM (inactive); in [13], 1.91 µM (inactive); in [20] it was 1.51 µM (inactive); in [14], 4.26 µM (inactive); in [16] it was 2.96 µM (inactive); in test [17] it was 1.91 µM (inactive).
On to `Cc1n[nH]c(=O)n1/N=C/c1ccc(Cl)cc1`, for which the GI50 in test [1] was 52.2 µM (inactive); in test [18], 47.2 µM (inactive); in [2], over 100 µM; in test [5], > 100 µM (inactive); in [6], > 100 µM (inactive); in test [8] it was 59.7 µM (inactive). Besides, the GI50 in test [9] is 27.9 µM (inactive); in [10], 83.6 µM (inactive); in [11], > 100 µM (inactive); in test [12] it was 44.9 µM (inactive); in test [13] it was > 100 µM (inactive); in test [14], 83.4 µM (inactive). For the same compound, the GI50 in test [15] was 41.2 µM (inactive); in [16] it was 81.8 µM (inactive); in test [17], 56.9 µM (inactive).
